Assay results as given in patent US10695337B2, “Piperidin-4-yl azetidine derivatives as JAK1 inhibitors” (Incyte Corporation, priority 2010, dated 2020).

Molecular target: human JAK1 (a.a. 837-1142)
Test: In vitro JAK kinase assay (HTRF, phosphorylation of a biotinylated peptide), JAK1
Format: biochemical
Conditions: measured at 1 mM ATP; JAK2 IC50 / JAK1 IC50
In short: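 Phosphorylation of a biotinylated peptide by purified His-tagged JAK catalytic domains (insect-cell baculovirus expression) ran 1 hr at room temperature. After stopping with EDTA, Eu-Py20 and SA-APC were bound for 40 minutes and HTRF measured.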

Row | SMILES | IC50 Ratio JAK2/JAK1
1 | N#CCC1(n2cc(-c3ccnc4[nH]ccc34)cn2)CN(C2CCN(C(=O)Nc3ccncc3C(F)(F)F)CC2)C1 [Example 307, 4-{3-(cyanomethyl)-3-[4-(1H-pyrrolo[2,3-b]pyridin-4-yl)-1H-pyrazol-1-yl]azetidin-1-yl}-N-[3-(trifluoromethyl)pyridin-4-yl]piperidine-1-carboxamide] | 8.8
2 | N#CCC1(n2cc(-c3ccnc4[nH]ccc34)cn2)CN(C2CCN(C(=O)Nc3ccccc3F)CC2)C1 [Example 309, 4-{3-(cyanomethyl)-3-[4-(1H-pyrrolo[2,3-b]pyridin-4-yl)-1H-pyrazol-1-yl]azetidin-1-yl}-N-(2-fluorophenyl)piperidine-1-carboxamide] | 5.3
3 | N#CCC1(n2cc(-c3ccnc4[nH]ccc34)cn2)CN(C2CCN(C(=O)Nc3ccccc3Cl)CC2)C1 [Example 310, N-(2-chlorophenyl)-4-{3-(cyanomethyl)-3-[4-(1H-pyrrolo[2,3-b]pyridin-4-yl)-1H-pyrazol-1-yl]azetidin-1-yl}piperidine-1-carboxamide] | 9.0
4 | N#CCC1(n2cc(-c3ccnc4[nH]ccc34)cn2)CN(C2CCN(C(=O)Nc3ccc(C#N)cc3F)CC2)C1 [Example 312, N-(4-cyano-2-fluorophenyl)-4-{3-(cyanomethyl)-3-[4-(1H-pyrrolo[2,3-b]pyridin-4-yl)-1H-pyrazol-1-yl]azetidin-1-yl}piperidine-1-carboxamide] | 5.3
5 | N#CCC1(n2cc(-c3c(F)cnc4[nH]ccc34)cn2)CN(C2CCN(C(=O)c3ccnc(C(F)(F)F)c3F)CC2)C1 [Example 314, (3-[4-(5-Fluoro-1H-pyrrolo[2,3-b]pyridin-4-yl)-1H-pyrazol-1-yl]-1-{1-[3-fluoro-2-(trifluoromethyl)isonicotinoyl]piperidin-4-yl}azetidin-3-yl)acetonitrile] | 11.0
6 | N#CCC1(n2cc(-c3c(F)cnc4[nH]ccc34)cn2)CN(C2CCN(C(=O)c3cc(F)cc(C#N)c3)CC2)C1 [Example 316, 3-[(4-{3-(cyanomethyl)-3-[4-(5-fluoro-1H-pyrrolo[2,3-b]pyridin-4-yl)-1H-pyrazol-1-yl]azetidin-1-yl}piperidin-1-yl)carbonyl]-5-fluorobenzonitrile] | 9.5
7 | N#CCC1(n2cc(-c3c(F)cnc4[nH]ccc34)cn2)CN(C2CCN(C(=O)c3ccc(C#N)cc3F)CC2)C1 [Example 317, 4-[(4-{3-(cyanomethyl)-3-[4-(5-fluoro-1H-pyrrolo[2,3-b]pyridin-4-yl)-1H-pyrazol-1-yl]azetidin-1-yl}piperidin-1-yl)carbonyl]-3-fluorobenzonitrile] | 4.5
8 | N#CCC1(n2cc(-c3c(F)cnc4[nH]ccc34)cn2)CN(C2CCN(C(=O)c3ccc(F)c(C#N)c3)CC2)C1 [Example 318, 5-[(4-{3-(cyanomethyl)-3-[4-(5-fluoro-1H-pyrrolo[2,3-b]pyridin-4-yl)-1H-pyrazol-1-yl]azetidin-1-yl}piperidin-1-yl)carbonyl]-2-fluorobenzonitrile] | 4.7
9 | N#CCC1(n2cc(-c3c(F)cnc4[nH]ccc34)cn2)CN(C2CCN(C(=O)c3ccc(F)cn3)CC2)C1 [Example 319] | 4.0
10 | N#CCC1(n2cc(-c3c(F)cnc4[nH]ccc34)cn2)CN(C2CCN(C(=O)c3ccncc3F)CC2)C1 [Example 320, {1-[1-(3-fluoroisonicotinoyl)piperidin-4-yl]-3-[4-(5-fluoro-1H-pyrrolo[2,3-b]pyridin-4-yl)-1H-pyrazol-1-yl]azetidin-3-yl}acetonitrile] | 2.8
11 | N#CCC1(n2cc(-c3c(F)cnc4[nH]ccc34)cn2)CN(C2CCN(C(=O)c3c(F)cncc3F)CC2)C1 [Example 321, {1-[1-(3,5-difluoroisonicotinoyl)piperidin-4-yl]-3-[4-(5-fluoro-1H-pyrrolo[2,3-b]pyridin-4-yl)-1H-pyrazol-1-yl]azetidin-3-yl}acetonitrile] | 3.0
12 | N#CCC1(n2cc(-c3c(F)cnc4[nH]ccc34)cn2)CN(C2CCN(C(=O)c3ccc(O)c(F)c3)CC2)C1 [Example 322, {1-[1-(3-fluoro-4-hydroxybenzoyl)piperidin-4-yl]-3-[4-(5-fluoro-1H-pyrrolo[2,3-b]pyridin-4-yl)-1H-pyrazol-1-yl]azetidin-3-yl}acetonitrile] | 4.7
13 | N#CCC1(n2cc(-c3c(F)cnc4[nH]ccc34)cn2)CN(C2CCN(C(=O)c3ccc(O)cc3F)CC2)C1 [Example 323, {1-[1-(2-fluoro-4-hydroxybenzoyl)piperidin-4-yl]-3-[4-(5-fluoro-1H-pyrrolo[2,3-b]pyridin-4-yl)-1H-pyrazol-1-yl]azetidin-3-yl}acetonitrile] | 5.0
14 | N#CCC1(n2cc(-c3c(F)cnc4[nH]ccc34)cn2)CN(C2CCN(C(=O)c3cc(C(F)(F)F)ncc3Cl)CC2)C1 [Example 326, {1-{1-[5-chloro-2-(trifluoromethyl)isonicotinoyl]piperidin-4-yl}-3-[4-(5-fluoro-1H-pyrrolo[2,3-b]pyridin-4-yl)-1H-pyrazol-1-yl]azetidin-3-yl}acetonitrile] | 1.7
15 | N#CCC1(n2cc(-c3c(F)cnc4[nH]ccc34)cn2)CN(C2CCN(C(=O)C3CCC(F)(F)CC3)CC2)C1 [Example 327, {1-{1-[(4,4-difluorocyclohexyl)carbonyl]piperidin-4-yl}-3-[4-(5-fluoro-1H-pyrrolo[2,3-b]pyridine-4-yl)-1H-pyrazol-1-yl]azetidin-3-yl}acetonitrile] | 4.1
16 | N#CCC1(n2cc(-c3c(F)cnc4[nH]ccc34)cn2)CN(C2CCN(C(=O)Nc3ncccc3C(F)(F)F)CC2)C1 [Example 329, 4-{3-(cyanomethyl)-3-[4-(5-fluoro-1H-pyrrolo[2,3-b]pyridin-4-yl)-1H-pyrazol-1-yl]azetidin-1-yl}-N-[3-(trifluoromethyl)pyridin-2-yl]piperidine-1-carboxamide] | 4.5
17 | N#CCC1(n2cc(-c3c(F)cnc4[nH]ccc34)cn2)CN(C2CCN(C(=O)Nc3cnccc3C(F)(F)F)CC2)C1 [Example 330, 4-{3-(cyanomethyl)-3-[4-(5-fluoro-1H-pyrrolo[2,3-b]pyridin-4-yl)-1H-pyrazol-1-yl]azetidin-1-yl}-N-[4-(trifluoromethyl)pyridin-3-yl]piperidine-1-carboxamide] | 6.7
18 | N#CCC1(n2cc(-c3c(C#N)cnc4[nH]ccc34)cn2)CN(C2CCN(C(=O)c3cc(F)cc(C#N)c3)CC2)C1 [Example 333, 4-{1-[1-[1-(3-cyano-5-fluorobenzoyl)piperidin-4-yl]-3-(cyanomethyl)azetidin-3-yl]-1H-pyrazol-4-yl}-1H-pyrrolo[2,3-b]pyridine-5-carbonitrile] | 8.8
19 | N#CCC1(n2cc(-c3c(C#N)cnc4[nH]ccc34)cn2)CN(C2CCN(C(=O)c3ccc(C#N)c(F)c3)CC2)C1 [Example 334, 4-{1-[1-[1-(4-cyano-3-fluorobenzoyl)piperidin-4-yl]-3-(cyanomethyl)azetidin-3-yl]-1H-pyrazol-4-yl}-1H-pyrrolo[2,3-b]pyridine-5-carbonitrile] | 4.3
20 | N#CCC1(n2cc(-c3c(C#N)cnc4[nH]ccc34)cn2)CN(C2CCN(C(=O)c3cc(Br)ccc3Br)CC2)C1 [Example 335] | 2.4
21 | N#CCC1(n2cc(-c3c(C#N)cnc4[nH]ccc34)cn2)CN(C2CCN(C(=O)c3cc(Br)cc(Br)c3)CC2)C1 [Example 336] | 2.9
22 | N#CCC1(n2cc(-c3c(C#N)cnc4[nH]ccc34)cn2)CN(C2CCN(C(=O)c3cc(C#N)ccc3C#N)CC2)C1 [Example 337, 2-[(4-{3-(cyanomethyl)-3-[4-(5-cyano-1H-pyrrolo[2,3-b]pyridin-4-yl)-1H-pyrazol-1-yl]azetidin-1-yl}piperidin-1-yl)carbonyl]terephthalonitrile] | 6.0
23 | N#CCC1(n2cc(-c3c(C#N)cnc4[nH]ccc34)cn2)CN(C2CCN(C(=O)c3cc(C#N)cc(C#N)c3)CC2)C1 [Example 338, 5-[(4-{3-(cyanomethyl)-3-[4-(5-cyano-1H-pyrrolo[2,3-b]pyridin-4-yl)-1H-pyrazol-1-yl]azetidin-1-yl}piperidin-1-yl)carbonyl]isophthalonitrile] | 7.4
24 | N#CCC1(n2cc(-c3c(C#N)cnc4[nH]ccc34)cn2)CN(C2CCN(C(=O)c3c(F)cc(C#N)cc3F)CC2)C1 [Example 340, 4-{1-[1-[1-(4-cyano-2,6-difluorobenzoyl)piperidin-4-yl]-3-(cyanomethyl)azetidin-3-yl]-1H-pyrazol-4-yl}-1H-pyrrolo[2,3-b]pyridine-5-carbonitrile] | 1.4
25 | N#CCC1(n2cc(-c3c(C#N)cnc4[nH]ccc34)cn2)CN(C2CCN(C(=O)c3cc(C(F)(F)F)ncc3Cl)CC2)C1 [Example 341, 4-{1-[1-{1-[5-chloro-2-(trifluoromethyl)isonicotinoyl]piperidin-4-yl}-3-(cyanomethyl)azetidin-3-yl]-1H-pyrazol-4-yl}-1H-pyrrolo[2,3-b]pyridine-5-carbonitrile] | 3.2
26 | N#CCC1(n2cc(-c3ncnc4[nH]ccc34)cn2)CN(C2CCN(C(=O)c3cc(C(F)(F)F)ncc3Cl)CC2)C1 [Example 342, {1-{1-[5-Chloro-2-(trifluoromethyl)isonicotinoyl]piperidin-4-yl}-3-[4-(7H-pyrrolo[2,3-d]pyrimidin-4-yl)-1H-pyrazol-1-yl]azetidin-3-yl}acetonitrile] | 5.7
27 | N#CCC1(n2cc(-c3ncnc4[nH]ccc34)cn2)CN(C2CCN(C(=O)c3cc(C(F)(F)F)ncc3F)CC2)C1 [Example 343, {1-{1-[5-Fluoro-2-(trifluoromethyl)isonicotinoyl]piperidin-4-yl}-3[4-(7H-pyrrolo[2,3-d]pyrimidin-4-yl)-1H-pyrazol-1-yl]azetidin-3-yl}acetonitrile] | 5.5
28 | N#CCC1(n2ccc(-c3ncnc4[nH]ccc34)c2)CN(C2CCN(C(=O)c3nc(C(F)(F)F)cs3)CC2)C1 [Example 346, [3-[3-(7H-Pyrrolo[2,3-d]pyrimidin-4-yl)-1H-pyrrol-1-yl]-1-(1-{[4-(trifluoromethyl)-1,3-thiazol-2-yl]carbonyl}piperidin-4-yl)azetidin-3-yl]acetonitrile] | 5.9
